Reference: ChEMBL document CHEMBL3045768, “Potential anti-inflammatory activity and ulcerogenicity study of some novel pyrimido[4,5:4,5]pyrimido[1,6-a]azepine derivatives” (Med Chem Res, 2012)

Columns and labels:
Rattus norvegicus [1] = test: Anti-inflammatory activity inRattus norvegicus albino (rat) assessed as inhibition of carrageenan-induced paw edema at 20 umol/kg, ip administered 1 hr before challenge measured after 3 hr relative to diclofenac-sodium; format: functional
Rattus norvegicus [2] = test: Toxicity inRattus norvegicus albino (rat) assessed as ulcerogenicity at 20 umol/kg, po qd for 3 days; format: organism-based; conditions: in vivo, 72 h
Rattus norvegicus [3] = test: Anti-inflammatory activity inRattus norvegicus albino (rat) assessed as inhibition of carrageenan-induced paw edema at 20 umol/kg, ip administered 1 hr before challenge measured after 3 hr; format: functional
Rattus norvegicus [4] = test: Anti-inflammatory activity inRattus norvegicus albino (rat) assessed as inhibition of carrageenan-induced paw edema at 20 umol/kg, ip administered 1 hr before challenge measured after 2 hr; format: functional
Rattus norvegicus [5] = test: Anti-inflammatory activity inRattus norvegicus albino (rat) assessed as inhibition of carrageenan-induced paw edema at 20 umol/kg, ip administered 1 hr before challenge measured after 1 hr; format: functional
Rattus norvegicus [6] = test: Anti-inflammatory activity inRattus norvegicus albino (rat) assessed as inhibition of carrageenan-induced paw edema at 24 umol/kg, ip administered 1 hr before challenge measured after 3 hr; format: functional
Rattus norvegicus [7] = test: Anti-inflammatory activity in ip dosedRattus norvegicus albino (rat) assessed as inhibition of carrageenan-induced paw edema administered 1 hr before challenge measured after 3 hr; format: functional, organism-based
Rattus norvegicus [8] = test: Anti-inflammatory activity inRattus norvegicus albino (rat) assessed as inhibition of carrageenan-induced paw edema at 12 umol/kg, ip administered 1 hr before challenge measured after 3 hr; format: functional
Rattus norvegicus [9] = test: Anti-inflammatory activity inRattus norvegicus albino (rat) assessed as inhibition of carrageenan-induced paw edema at 18 umol/kg, ip administered 1 hr before challenge measured after 3 hr; format: functional

SMILES	inhibition in vivo at 20 µmol/kg (Rattus norvegicus [1])	UI (Rattus norvegicus [2])	inhibition in vivo at 20 µmol/kg (Rattus norvegicus [3])	inhibition in vivo at 20 µmol/kg (Rattus norvegicus [4])	inhibition in vivo at 20 µmol/kg (Rattus norvegicus [5])	inhibition in vivo at 24 µmol/kg (Rattus norvegicus [6])	IC50 (Rattus norvegicus [7])	inhibition in vivo at 12 µmol/kg (Rattus norvegicus [8])	inhibition in vivo at 18 µmol/kg (Rattus norvegicus [9])
N#CC1=C(NC(=O)c2ccccc2O)N(c2ccccc2)C(=O)N2CCCCC(N3CCCC3)C12 (stereo not drawn)	74.7%	3.4	65.4%	53.8%	44.7%				
N#CC1=C(NC(=O)Cc2ccccc2Nc2c(Cl)cccc2Cl)N(c2ccccc2)C(=O)N2CCCCC(N3CCCC3)C12 (stereo not drawn)	76.7%	4.1	67.2%	48.5%	31.9%				
Nc1ncnc2c1C1C(N3CCCC3)CCCCN1C(=O)N2c1ccccc1 (stereo not drawn)	38.5%		33.7%	22.8%	17.6%				
O=C1N(c2ccccc2)c2ncnc(N3CCOCC3)c2C2C(N3CCCC3)CCCCN12 (stereo not drawn)	38.6%		33.8%	21.2%	17.7%				
O=C1N(c2ccccc2)c2ncnc(N3CCCCC3)c2C2C(N3CCCC3)CCCCN12 (stereo not drawn)	31.9%		27.9%	17.4%	10.3%				
O=C1N(c2ccccc2)c2ncnc(N3CCCC3)c2C2C(N3CCCC3)CCCCN12 (stereo not drawn)	31.1%		27.3%	14.8%	9.5%				
O=C1N(c2ccccc2)c2ncn(CN3CCOCC3)c(=O)c2C2C(N3CCCC3)CCCCN12 (stereo not drawn)	34.3%		30.1%	18.5%	13.1%				
O=C1N(c2ccccc2)c2ncn(CN3CCCCC3)c(=O)c2C2C(N3CCCC3)CCCCN12 (stereo not drawn)	33.4%		29.3%	16.4%	11.9%				
O=C1N(c2ccccc2)c2ncn(CN3CCCC3)c(=O)c2C2C(N3CCCC3)CCCCN12 (stereo not drawn)	37.2%		32.6%	22.3%	16.2%				
O=C1N(c2ccccc2)c2nc[nH]c(=O)c2C2C(N3CCCC3)CCCCN12 (stereo not drawn)	37.8%		33.1%	26.8%	11%				
O=C(Cc1ccccc1Nc1c(Cl)cccc1Cl)SCc1nc2c(c(=O)[nH]1)C1C(N3CCCC3)CCCCN1C(=O)N2c1ccccc1 (stereo not drawn)	61.3%	2.6	53.1%	45.8%	33.1%				
O=C(O)CSCc1nc2c(c(=O)[nH]1)C1C(N3CCCC3)CCCCN1C(=O)N2c1ccccc1 (stereo not drawn)	97.7%	2.7	85.6%	73.2%	66.4%	89.6%	11.73 µmol/kg	51.2%	69.3%
O=C(SCc1nc2c(c(=O)[nH]1)C1C(N3CCCC3)CCCCN1C(=O)N2c1ccccc1)c1ccccc1O (stereo not drawn)	56.4%	3.4	49.7%	36.9%	29.8%				
O=C1N(c2ccccc2)c2nc(CCN3CCOCC3)[nH]c(=O)c2C2C(N3CCCC3)CCCCN12 (stereo not drawn)	59.9%	3.4	52.5%	52.2%	38.8%				
O=C1N(c2ccccc2)c2nc(CCN3CCCCC3)[nH]c(=O)c2C2C(N3CCCC3)CCCCN12 (stereo not drawn)	47.3%		41.4%	35.7%	26.8%				
O=C1N(c2ccccc2)c2nc(CCN3CCCC3)[nH]c(=O)c2C2C(N3CCCC3)CCCCN12 (stereo not drawn)	50.6%		44.3%	32.5%	20.5%				
O=C1N(c2ccccc2)c2nc(CN3CCOCC3)[nH]c(=O)c2C2C(N3CCCC3)CCCCN12 (stereo not drawn)	71.2%	4.3	62.4%	57.5%	51.9%				
O=C1N(c2ccccc2)c2nc(CN3CCCCC3)[nH]c(=O)c2C2C(N3CCCC3)CCCCN12 (stereo not drawn)	48.4%		42.4%	37.2%	28%				
O=C1N(c2ccccc2)c2nc(CN3CCCC3)[nH]c(=O)c2C2C(N3CCCC3)CCCCN12 (stereo not drawn)	53.6%		48.7%	42.2%	36.2%				
O=C1N(c2ccccc2)c2nc(-c3ccccc3O)[nH]c(=O)c2C2C(N3CCCC3)CCCCN12 (stereo not drawn)	42.5%		37.2%	27.9%	21.9%				
O=C1N(c2ccccc2)c2nc(Cc3ccccc3Nc3c(Cl)cccc3Cl)[nH]c(=O)c2C2C(N3CCCC3)CCCCN12 (stereo not drawn)	51.7%		45.3%	35.2%	29.7%				
O=C([O-])Cc1ccccc1Nc1c(Cl)cccc1Cl.[Na+] [DICLOFENAC SODIUM]		9	87.6%	83.5%	68.6%	88.2%	7.26 µmol/kg	59.5%	79.3%
